Results: patent publication US8324246B2, “Indol carboxylic acid bispyridyl carboxamide derivatives, pharmaceutically acceptable salt thereof, preparation method and composition containing the same as an active ingredient” (Korea Research Institute of Chemical Technology, priority 2008, dated 2012)
Like-named read-outs stand apart in the source and are kept apart here.

Columns and labels:
[1] = target: T1, human gene recombinant 5-HT2c receptor expressed in CHO-K1 cell (Homo sapiens, UniProt P28335); assay: Binding affinity to the serotonin 5-HT2c receptor ([3H]mesulergine)
T1 construct: purchased Euroscreen, Belgium; host or cells: CHO-K1
T1 sequence (P28335 33-458): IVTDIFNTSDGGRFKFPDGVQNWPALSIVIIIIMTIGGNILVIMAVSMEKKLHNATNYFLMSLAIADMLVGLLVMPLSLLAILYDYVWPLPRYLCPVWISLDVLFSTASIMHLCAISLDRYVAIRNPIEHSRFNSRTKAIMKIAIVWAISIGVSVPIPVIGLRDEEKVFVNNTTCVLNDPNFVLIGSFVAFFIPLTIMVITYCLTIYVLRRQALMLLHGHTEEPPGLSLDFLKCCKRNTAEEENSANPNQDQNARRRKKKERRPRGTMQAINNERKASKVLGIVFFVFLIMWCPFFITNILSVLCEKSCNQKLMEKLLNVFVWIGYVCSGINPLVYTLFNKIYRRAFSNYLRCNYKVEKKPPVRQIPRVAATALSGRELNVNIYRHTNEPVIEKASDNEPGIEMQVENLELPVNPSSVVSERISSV
Protocol: As a receptor, a human gene recombinant 5-HT2c receptor expressed in CHO—K1 cell was purchased from Euroscreen, Belgium and used in the experiment, and as a radioactive isotope, [3H]mesulergine (Amersham Biosciences, UK).
A final volume of 0.25 ml reaction mixture was prepared by adding 50 mM Tris-HCl buffer (pH 7.7) containing one of the compounds in Examples 1-29 or Comparative Examples 1-2, 1 nM of [3H]mesulergine, 5-HT2c receptor membranes (4 D/well), 0.1% ascorbic acid and 10 µM pargyline, and incubated at 37° C. for 30 minutes. After incubation, the reaction was terminated by the rapid filtration using an Inotech harvester (Inotech) through a Wallace GF/C glass fiber filter (Wallac, Finland) which was presoaked in 1% BSA, and then washed with ice-cold 50 mM Tris-HCl buffer. The filter was covered with MeltiLex, sealed in a sample bag followed by drying in the oven, and counted by MicroBeta Plus (Wallac). Non-specific binding was determined in the presence of […] Mianserin. Three repeating experiments were carried out with 7-8 concentrations of the compound in Examples 1-29 or the compound in comparative examples 1-2, run in duplicate tubes, and isotherms from the three assays were calculated by a nonlinear regression analysis (GraphPad Prism Program, San Diego, USA) to yield IC50 values.

5-HT1a = target: T2, 5-HT1a (Homo sapiens, UniProt P08908); assay: Receptor selectivity binding, 5-HT1a; settings: Table 3
T2 sequence (P08908 1-422): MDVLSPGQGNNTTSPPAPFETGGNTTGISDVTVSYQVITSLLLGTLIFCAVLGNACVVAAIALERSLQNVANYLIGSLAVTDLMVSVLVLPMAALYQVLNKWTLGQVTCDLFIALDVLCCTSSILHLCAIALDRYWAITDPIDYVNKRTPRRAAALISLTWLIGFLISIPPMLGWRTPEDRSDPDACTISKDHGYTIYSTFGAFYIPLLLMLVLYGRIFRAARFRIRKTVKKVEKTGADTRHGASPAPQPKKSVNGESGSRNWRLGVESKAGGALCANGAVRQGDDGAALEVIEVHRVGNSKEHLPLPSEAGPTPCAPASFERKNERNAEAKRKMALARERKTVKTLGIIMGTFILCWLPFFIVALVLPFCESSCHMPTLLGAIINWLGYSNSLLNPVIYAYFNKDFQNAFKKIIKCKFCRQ
Protocol: (§1) For their high binding affinities for 5-HT2c, compounds in Examples 14 to 18, 20, and 22 or in Comparative Example 1 were used for the experiment with reaction mixtures. Except that CNS receptors such as 5-HT1a, 5-HT2a, 5-HT7, D2, D3 or D4 other than 5-HT2c were used as a receptor, IC50 values (nM) were measured in the same manner as in Experimental Example 1.

5-HT2a = 5-HT2a (Homo sapiens, UniProt P28223); assay: Receptor selectivity binding, 5-HT2a; settings: Table 3
Chain of 5-HT2a (P28223 whole entry, species assumed): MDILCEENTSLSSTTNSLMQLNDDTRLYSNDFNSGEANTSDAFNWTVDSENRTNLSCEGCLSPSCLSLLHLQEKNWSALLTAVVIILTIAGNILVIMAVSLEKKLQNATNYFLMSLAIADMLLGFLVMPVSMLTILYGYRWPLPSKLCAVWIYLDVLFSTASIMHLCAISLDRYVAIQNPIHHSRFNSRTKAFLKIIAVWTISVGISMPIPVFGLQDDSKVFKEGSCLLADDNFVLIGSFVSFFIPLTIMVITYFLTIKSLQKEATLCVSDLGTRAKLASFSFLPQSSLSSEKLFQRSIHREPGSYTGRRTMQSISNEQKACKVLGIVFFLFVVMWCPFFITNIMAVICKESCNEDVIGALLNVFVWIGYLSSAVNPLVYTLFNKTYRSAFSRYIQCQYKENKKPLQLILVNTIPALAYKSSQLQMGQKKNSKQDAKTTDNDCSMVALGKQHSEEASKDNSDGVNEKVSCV
Protocol: as §1

5-HT6 = 5-HT6 (Homo sapiens, UniProt P50406); assay: Receptor selectivity binding, 5-HT6; settings: Table 3
Chain of 5-HT6 (P50406 whole entry, species assumed): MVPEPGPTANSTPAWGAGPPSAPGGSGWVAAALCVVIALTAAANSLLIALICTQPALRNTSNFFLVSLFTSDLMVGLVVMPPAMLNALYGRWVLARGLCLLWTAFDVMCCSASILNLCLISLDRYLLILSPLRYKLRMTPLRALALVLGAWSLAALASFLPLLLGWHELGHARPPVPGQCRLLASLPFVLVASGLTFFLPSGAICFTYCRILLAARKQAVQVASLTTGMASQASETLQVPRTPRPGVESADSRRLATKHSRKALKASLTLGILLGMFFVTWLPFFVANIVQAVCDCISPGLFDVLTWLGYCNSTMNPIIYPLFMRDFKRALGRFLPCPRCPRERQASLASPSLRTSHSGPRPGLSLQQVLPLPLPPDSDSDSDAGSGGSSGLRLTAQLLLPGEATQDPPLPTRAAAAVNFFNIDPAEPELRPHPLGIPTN
Protocol: as §1

5-HT7 = 5-HT7 (Homo sapiens, UniProt P34969); assay: Receptor selectivity binding, 5-HT7; settings: Table 3
Chain of 5-HT7 (P34969 whole entry, species assumed): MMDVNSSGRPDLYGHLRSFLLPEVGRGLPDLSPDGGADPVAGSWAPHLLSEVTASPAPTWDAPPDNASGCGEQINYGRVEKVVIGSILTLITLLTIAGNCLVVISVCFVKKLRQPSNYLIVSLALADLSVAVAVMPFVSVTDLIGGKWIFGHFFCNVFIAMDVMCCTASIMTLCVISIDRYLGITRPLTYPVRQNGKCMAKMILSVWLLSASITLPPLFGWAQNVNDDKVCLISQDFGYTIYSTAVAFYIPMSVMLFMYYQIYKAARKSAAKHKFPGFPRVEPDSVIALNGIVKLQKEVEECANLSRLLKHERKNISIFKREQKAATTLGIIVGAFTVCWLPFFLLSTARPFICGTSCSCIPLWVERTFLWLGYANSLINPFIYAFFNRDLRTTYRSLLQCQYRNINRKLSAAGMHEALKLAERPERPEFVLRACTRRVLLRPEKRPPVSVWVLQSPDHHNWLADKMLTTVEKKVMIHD
Protocol: as §1

D2 = D2 (Homo sapiens, UniProt P14416); assay: Receptor selectivity binding, D2; settings: Table 3
Chain of D2 (P14416 whole entry): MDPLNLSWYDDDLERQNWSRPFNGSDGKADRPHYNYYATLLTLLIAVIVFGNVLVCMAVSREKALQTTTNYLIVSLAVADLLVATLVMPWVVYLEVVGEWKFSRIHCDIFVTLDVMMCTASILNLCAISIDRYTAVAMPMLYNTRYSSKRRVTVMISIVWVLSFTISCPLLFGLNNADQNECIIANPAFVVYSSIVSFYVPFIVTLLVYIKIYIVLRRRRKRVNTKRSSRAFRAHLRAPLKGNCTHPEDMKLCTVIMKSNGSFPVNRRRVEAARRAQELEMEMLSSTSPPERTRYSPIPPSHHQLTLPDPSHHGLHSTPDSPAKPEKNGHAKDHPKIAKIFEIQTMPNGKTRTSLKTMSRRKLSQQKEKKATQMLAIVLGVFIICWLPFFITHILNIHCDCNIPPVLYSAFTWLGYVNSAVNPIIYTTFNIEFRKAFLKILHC
Protocol: as §1

D3 = D3 (Homo sapiens, UniProt P35462); assay: Receptor selectivity binding, D3; settings: Table 3
Chain of D3 (P35462 whole entry): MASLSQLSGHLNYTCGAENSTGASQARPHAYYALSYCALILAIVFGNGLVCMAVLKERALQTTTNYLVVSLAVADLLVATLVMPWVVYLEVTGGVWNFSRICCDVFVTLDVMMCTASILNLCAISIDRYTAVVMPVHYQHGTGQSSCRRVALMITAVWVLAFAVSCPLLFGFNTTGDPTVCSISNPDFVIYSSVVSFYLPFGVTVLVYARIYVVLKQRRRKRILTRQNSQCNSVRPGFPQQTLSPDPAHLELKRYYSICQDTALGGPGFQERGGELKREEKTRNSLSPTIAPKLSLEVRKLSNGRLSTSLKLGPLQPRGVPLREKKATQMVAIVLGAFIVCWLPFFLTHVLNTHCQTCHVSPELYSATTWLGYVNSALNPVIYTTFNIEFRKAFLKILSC
Protocol: as §1

D4 = target: T3, D4 (Homo sapiens, UniProt P21917); assay: Receptor selectivity binding, D4; settings: Table 3
T3 sequence (P21917 1-419): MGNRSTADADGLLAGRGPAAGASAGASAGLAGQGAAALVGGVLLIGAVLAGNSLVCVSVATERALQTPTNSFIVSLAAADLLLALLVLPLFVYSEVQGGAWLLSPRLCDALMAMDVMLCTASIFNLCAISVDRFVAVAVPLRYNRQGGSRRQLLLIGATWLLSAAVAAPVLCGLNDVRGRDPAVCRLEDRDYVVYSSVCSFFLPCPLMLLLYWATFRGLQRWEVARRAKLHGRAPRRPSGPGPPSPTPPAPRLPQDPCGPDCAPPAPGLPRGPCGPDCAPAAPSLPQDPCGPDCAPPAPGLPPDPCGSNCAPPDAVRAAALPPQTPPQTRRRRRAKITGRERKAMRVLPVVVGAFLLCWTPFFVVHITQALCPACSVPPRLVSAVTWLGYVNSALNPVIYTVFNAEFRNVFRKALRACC
Protocol: as §1

human 5-HT2c receptors = target: T4, human 5-HT2c receptors (Homo sapiens, UniProt P28335); settings: for Inhibition rate of serotonin (5-HT)-induced [35S]GTPS increase: 30 µM serotonin
T4 sequence (P28335 33-458): T1 sequence (P28335 33-458)

[2] = [3H]mesulergine 1 nM, 37° C. 30 minutes, Table 2, read-out: IC50

Compound	IC50 ([1]; Table 3, read-out: IC50 5-HT2c)	IC50 [1, 2]	IC50 (5-HT1a)	IC50 (5-HT2a)	IC50 (5-HT6)	IC50 (5-HT7)	IC50 (D2)	IC50 (D3)	IC50 (D4)	Inhibition rate of serotonin (5-HT)-induced [35S]GTPS increase (human 5-HT2c receptors; concentration 0.001 µM)	Inhibition rate of serotonin (5-HT)-induced [35S]GTPS increase (human 5-HT2c receptors; concentration 0.01 µM)	Inhibition rate of serotonin (5-HT)-induced [35S]GTPS increase (human 5-HT2c receptors; concentration 0.1 µM)	Inhibition rate of serotonin (5-HT)-induced [35S]GTPS increase (human 5-HT2c receptors; concentration 1 µM)	Inhibition rate of serotonin (5-HT)-induced [35S]GTPS increase (human 5-HT2c receptors; concentration 10 µM)	IC50 (human 5-HT2c receptors; read-out: IC50, antagonist activity on serotonin (5-HT)-induced GTP level increase, 30 M serotonin)	inhibition of the 5-HT-induced increase in [35S]GTPS concentration level (human 5-HT2c receptors; control 5-HT2c antagonist)
COc1ccc2[nH]cc(C(=O)Nc3ccc(Oc4cccnc4C)nc3)c2c1 [Example 15, 5-methoxy-1H-indole-3-carboxylic acid[6-(2-methyl-pyridine-3-yloxy)-pyridine-3-yl]-amide]	10.7 nM	10.7 nM	> 10000 nM	> 10000 nM	> 10000 nM	> 10000 nM	> 10000 nM	> 10000 nM	> 10000 nM							
Cc1ccc2c(C(=O)Nc3ccc(Oc4cccnc4C)nc3)c[nH]c2c1 [Example 16, 6-methyl-1H-indole-3-carboxylic acid[6-(2-methyl-pyridine-3-yloxy)-pyridine-3-yl]-amide]	1.9 nM	1.9 nM	> 10000 nM	> 10000 nM	> 10000 nM	> 10000 nM	> 10000 nM	> 10000 nM	> 10000 nM							
Cc1ncccc1Oc1ccc(NC(=O)c2c[nH]c3c(C)cccc23)cn1 [Example 17, 7-methyl-1H-indole-3-carboxylic acid[6-(2-methyl-pyridine-3-yloxy)-pyridine-3-yl]-amide]	8.2 nM	8.2 nM	> 10000 nM	> 10000 nM	> 10000 nM	> 10000 nM	> 10000 nM	> 10000 nM	> 10000 nM							
Cc1ncccc1Oc1ccc(NC(=O)c2c[nH]c3ccc(I)cc23)cn1 [Example 18, 5-iodo-1H-indole-3-carboxylic acid[6-(2-methyl-pyridine-3-yloxy)-pyridine-3-yl]-amide]	0.62 nM	0.6 nM	780 nM	84.7 nM	> 1000 nM	> 1000 nM	> 10000 nM	> 1000 nM	> 1000 nM							
O=C(Nc1ccc(OCc2ccccn2)nc1)c1c[nH]c2ccccc12 [Example 20, 1H-indole-3-carboxylic acid[6-(pyridine-2-ylmethoxy)-pyridine-3-yl]-amide]	5.9 nM	5.9 nM	> 10000 nM	> 10000 nM	> 1000 nM	> 10000 nM	> 10000 nM	> 10000 nM	> 10000 nM							
O=C(Nc1ccc(Oc2cccnc2Cl)nc1)c1c[nH]c2ccccc12 [Example 22, 1H-indole-3-carboxylic acid[6-(2-chloro-pyridine-3-yloxy)-pyridine-3-yl]-amide]	0.5 nM	0.5 nM	> 10000 nM	> 1000 nM	> 10000 nM	> 10000 nM	> 10000 nM	> 10000 nM	> 1000 nM	0%	1%	9%	67%	100%	590 nM	
Cc1cc2c(cc1Cl)N(C(=O)Nc1ccc(Oc3cccnc3C)nc1)CC2 [SB242084, reference compound]																inhibited
